Consider 44 compounds from patent US4115385A, “Antibacterial 3-(5-tetrazolyl) penam compounds” (Pfizer Inc., priority 1977, dated 1978).

SMILES strings stand for the structures. ≈ marks a conversion by molar mass, not a printed value.

The first assay has as its system Streptococcus pyogenes. The experiment in a line: In vitro minimum inhibitory concentration (MIC) vs. Strep. pyogenes. In kind it is cell-based. The settings on record: Streptococcus pyogenes, read-out: MIC vs. Strep. pyogenes. The procedure: The antibacterial penam compounds of the instant invention show activity against a wide variety of gram-positive and gram-negative bacteria. […] The broth is inoculated with the bacterial culture, and with the test antibiotic, and then it is incubated overnight. On the next day, the test is read visually. The minimum inhibitory concentration (MIC) is the lowest concentration of antibiotic which prevents turbidity, i.e., which prevents growth of the microorganism. In vitro activities of several of the penam compounds of the invention are presented later in this specification.
In Table II, the minimum inhibitory concentrations (MIC's) of compounds of formula I, wherein R^2 is hydrogen, against a strain of Streptococcus pyogenes, are reported; and in Table III, minimum inhibitory concentrations of compounds of formula I, wherein R^2 is hydrogen, against a strain of Staphylococcus aureus, are presented. Because of the tautomeric nature of such tetrazole derivatives, referred to hereinbefore,each of the preparations tested also contains some of the corresponding compound of formula II, wherein R^3 is hydrogen.
Broadly, the MIC is the lowest concentration that inhibits growth of the organism. For `CC1(C)S[C@@H]2[C@H](NC(=O)[C@H](NC(=O)NC(=N)N)c3ccccc3)C(=O)N2[C@H]1c1nnn[nH]1` [D-2-(3-guanylureido)-2-phenylacetyl, 6-(D-2-[3-Guanylureido]-2-phenylacetamido)-2,2-dimethyl-3-(5-tetrazolyl)penam], the MIC was less than 0.1 µg/mL. Still for that read-out and setting: then `CC1(C)S[C@@H]2[C@H](NC(=O)C(C(=O)O)c3ccsc3)C(=O)N2[C@H]1c1nnn[nH]1` (some centres unmarked) [2-carboxy-2-(3-thienyl)acetyl, 6-(2-Carboxy-2-[3-thienyl]acetamido)-2,2-dimethyl-3-(5-tetrazolyl)penam], with 0.1 µg/mL (≈ 0.245 µM); and `CC1(C)S[C@@H]2[C@H](NC(=O)[C@H](NC(=O)CNC(=O)NC(=O)c3ccccc3)c3ccccc3)C(=O)N2[C@H]1c1nnn[nH]1`, with less than 0.1 µg/mL; and `CC1(C)S[C@@H]2[C@H](NC(=O)[C@H](NC(=O)NC(=O)C3CC3)c3ccccc3)C(=O)N2[C@H]1c1nn[nH]n1`, with less than 0.1 µg/mL. Still for that read-out and setting: then `CNC(=N)NCC(=O)N[C@@H](C(=O)N[C@@H]1C(=O)N2[C@@H]1SC(C)(C)[C@@H]2c1nn[nH]n1)c1ccccc1`, with less than 0.1 µg/mL; and `CCOc1ccc2ccccc2c1C(=O)N[C@@H]1C(=O)N2[C@@H]1SC(C)(C)[C@@H]2c1nnn[nH]1` [2-ethoxy-1-naphthoyl, 6-(2-Ethoxy-1-naphthamido)-2,2-dimethyl-3-(5-tetrazolyl)penam], with less than 0.1 µg/mL. Still for that read-out and setting: then `CC1(C)S[C@@H]2[C@H](NC(=O)[C@H](NC(=O)CCNC(=O)Nc3ccccc3)c3ccccc3)C(=O)N2[C@H]1c1nnn[nH]1`, with less than 0.1 µg/mL; and `CC1(C)S[C@@H]2[C@H](NC(=O)[C@H](NC(=O)CNC(=N)c3nc4ccccc4s3)c3ccccc3)C(=O)N2[C@H]1c1nnn[nH]1`, with less than 0.1 µg/mL; and `CCC(=O)NCC(=O)N[C@@H](C(=O)N[C@@H]1C(=O)N2[C@@H]1SC(C)(C)[C@@H]2c1nn[nH]n1)c1ccccc1`, with less than 0.1 µg/mL. For the compound `CC1(C)S[C@@H]2[C@H](NC(=O)CNC(=N)c3ccncc3)C(=O)N2[C@H]1c1nnn[nH]1` [2-(4-pyridinecarboxamidino)acetyl], the MIC was less than 0.1 µg/mL.

For `CC1(C)S[C@@H]2[C@H](NC(=O)Cc3ccc(CN)cc3)C(=O)N2[C@H]1c1nnn[nH]1` [2-(4-aminomethylphenyl)acetyl, 6-(2-[4-Aminomethylphenyl]acetamido)-2,2-dimethyl-3-(5-tetrazolyl)penam], the MIC was less than 0.1 µg/mL. Turning to `CC1(C)S[C@@H]2[C@H](NC(=O)[C@H](NS(=O)(=O)c3ccccc3)c3ccc(O)cc3)C(=O)N2[C@H]1c1nn[nH]n1` [6-(D-2-[Benzenesulfonamido]-2-[p-hydroxyphenyl]acetamido)-2,2-dimethyl-3-(5-tetrazolyl)penam], the MIC is less than 0.1 µg/mL. The same measure, in the same setting: the same measure for `CC1(C)S[C@@H]2[C@H](NC(=O)Cc3ccc(OCCN)cc3)C(=O)N2[C@H]1c1nn[nH]n1` [2-(4-[2-aminoethoxy]phenyl)acetyl, 6-(2-[4-(2-Aminoethoxy)phenyl]acetamido)-2,2-dimethyl-3-(5-tetrazolyl)penam]: less than 0.1 µg/mL; for `CCCC(=O)NCC(=O)N[C@@H](C(=O)N[C@@H]1C(=O)N2[C@@H]1SC(C)(C)[C@@H]2c1nnn[nH]1)c1ccccc1`: less than 0.1 µg/mL. On to `CCNC(=O)N[C@@H]1C(=O)N2[C@@H]1SC(C)(C)[C@@H]2c1nnn[nH]1` [3-ethylcarbamoyl, 6-(3-ethylureido)-2,2-dimethyl-3-(5-tetrazolyl)penam], for which the MIC was less than 0.1 µg/mL.

For the compound `CC1(C)S[C@@H]2[C@H](NC(=O)[C@H](NC(=O)CN)c3ccc(O)cc3)C(=O)N2[C@H]1c1nnn[nH]1` [6-(D-2-[2-aminoacetamido]-2-[4-hydroxyphenyl]acetamido)-2,2-dimethyl-3-(5-tetrazolyl)penam], the MIC is less than 0.1 µg/mL.

On to `CC(=N)NCCC(=O)N[C@@H](C(=O)N[C@@H]1C(=O)N2[C@@H]1SC(C)(C)[C@@H]2c1nnn[nH]1)c1ccccc1`, for which the minimum inhibitory concentration (MIC) was less than 0.1 µg/mL. Still for that read-out and setting: the same measure for `CC1(C)S[C@@H]2[C@H](NC(=O)[C@H](NC(=O)NC(N)=O)c3ccccc3)C(=O)N2[C@H]1c1nnn[nH]1` [D-2-allophanamido-2-phenylacetyl, 6-(D-2-Allophanamido-2-phenylacetamido)-2,2-dimethyl-3-(5-tetrazolyl)penam]: less than 0.1 µg/mL.

`Cc1ccc(NC(=O)N[C@@H](C(=O)N[C@@H]2C(=O)N3[C@@H]2SC(C)(C)[C@@H]3c2nnn[nH]2)c2ccccc2)cc1` [D-2-(3-[p-tolyl]ureido)-2-phenylacetyl]: the MIC was less than 0.1 µg/mL. The same measure, in the same setting: then `CC1(C)S[C@@H]2[C@H](NC(=O)[C@H](NC(=O)Nc3ccccc3)c3ccccc3)C(=O)N2[C@H]1c1nnn[nH]1` [D-2-(3-phenylureido)-2-phenylacetyl], with less than 0.1 µg/mL; and `CC1(C)S[C@@H]2[C@H](NC(=O)[C@H](NC(=O)c3cccs3)c3ccccc3)C(=O)N2[C@H]1c1nnn[nH]1`, with less than 0.1 µg/mL. The same measure, in the same setting: the same measure for `CCC(=O)NC(=O)N[C@@H](C(=O)N[C@@H]1C(=O)N2[C@@H]1SC(C)(C)[C@@H]2c1nn[nH]n1)c1ccccc1` [2-(3-propionylureido)-2-phenylacetyl]: less than 0.1 µg/mL. The same measure, in the same setting: the same measure for `CC1(C)S[C@@H]2[C@H](NC(=O)CSc3ccncc3)C(=O)N2[C@H]1c1nnn[nH]1` [2-(4-pyridylthio)acetyl, 6-(2-[4-Pyridylthio]acetamido)-2,2-dimethyl-3-(5-tetrazolyl)penam]: less than 0.1 µg/mL; for `COc1ccc(NC(=O)N[C@@H](C(=O)N[C@@H]2C(=O)N3[C@@H]2SC(C)(C)[C@@H]3c2nnn[nH]2)c2ccc(O)cc2)cc1`: less than 0.1 µg/mL. Take `CC1(C)S[C@@H]2[C@H](NC(=O)[C@H](NC(=O)Cc3ccc(N)cc3)c3ccccc3)C(=O)N2[C@H]1c1nn[nH]n1` [6-(D-2-[2-(4-Aminophenyl)acetamido]-2-phenylacetamido)-2,2-dimethyl-3-(5-tetrazolyl)penam]: the MIC is less than 0.1 µg/mL.

Consider `CC1(C)S[C@@H]2[C@H](NC(=O)[C@H](NC(=O)c3ccccc3)c3ccccc3)C(=O)N2[C@H]1c1nnn[nH]1` [D-2-(benzamido)-2-phenylacetyl], for which the MIC is less than 0.1 µg/mL. On to `CNC(=O)NCC(=O)N[C@@H](C(=O)N[C@@H]1C(=O)N2[C@@H]1SC(C)(C)[C@@H]2c1nnn[nH]1)c1ccccc1`, for which the MIC was less than 0.1 µg/mL. `CC1(C)S[C@@H]2[C@H](NC(=O)[C@H](NC(=O)CCNC(=N)c3ccncc3)c3ccccc3)C(=O)N2[C@H]1c1nnn[nH]1`: the MIC was less than 0.1 µg/mL. On the same count and under the same terms, the same measure for `CCCS(=O)(=O)N[C@@H](C(=O)N[C@@H]1C(=O)N2[C@@H]1SC(C)(C)[C@@H]2c1nn[nH]n1)c1ccc(O)cc1` [6-(D-2-[Propanesulfonamido]-2-[p-hydroxyphenyl]acetamido-)-2,2-dimethyl-3-(5-tetrazolyl)penam]: 0.1 µg/mL (≈ 0.202 µM). As for `CC1(C)S[C@@H]2[C@H](NC(=O)[C@H](NC(=O)NC(=O)C34CC5CC(CC(C5)C3)C4)c3ccccc3)C(=O)N2[C@H]1c1nn[nH]n1`, the MIC was less than 0.1 µg/mL. On the same count and under the same terms, then `CC1(C)S[C@@H]2[C@H](NC(=O)[C@H](NC(=O)Cc3ccc([N+](=O)[O-])cc3)c3ccccc3)C(=O)N2[C@H]1c1nn[nH]n1` [6-(D-2-[2-(4-nitrophenyl)acetamido]-2-phenylacetamido)-2,2-dimethyl-3-(5-tetrazolyl)penam], with less than 0.1 µg/mL.

Staying with this assay, now noted: Streptococcus pyogenes; Table II; two-fold serial dilution, Brain-Heart Infusion broth, overnight; read-out: MIC vs. Strep. pyogenes.
As for `CCN=C(NCC)SCC(=O)N[C@@H](C(=O)N[C@@H]1C(=O)N2[C@@H]1SC(C)(C)[C@@H]2c1nn[nH]n1)c1ccccc1`, the MIC was determined as 0.004 µg/mL (≈ 0.00733 µM). With `CC1(C)S[C@@H]2[C@H](NC(=O)[C@H](NC(=O)COCC(=O)O)c3ccccc3)C(=O)N2[C@H]1c1nnn[nH]1` [6-(D-2-[Carboxymethoxy]acetamido-2-phenylacetamido)-2,2-dimethyl-3-(5-tetrazolyl)penam], the MIC turned out to be 0.2 µg/mL (≈ 0.409 µM). The same measure, in the same setting: the same measure for `COc1ccc(S(=O)(=O)N[C@@H](C(=O)N[C@@H]2C(=O)N3[C@@H]2SC(C)(C)[C@@H]3c2nn[nH]n2)c2ccccc2)cc1`: 0.2 µg/mL (≈ 0.368 µM); for `CC(=O)NC(=O)N[C@@H]1C(=O)N2[C@@H]1SC(C)(C)[C@@H]2c1nn[nH]n1` [N-acetylcarbomoyl]: 1.56 µg/mL (≈ 4.79 µM); for `CC1(C)S[C@@H]2[C@H](NC(=O)[C@H](NC(=O)Cc3ccc(NC(=N)N)cc3)c3ccccc3)C(=O)N2[C@H]1c1nn[nH]n1`: 1.56 µg/mL (≈ 2.84 µM). The same measure, in the same setting: the same measure for `CCOC(=O)N[C@@H](C(=O)N[C@@H]1C(=O)N2[C@@H]1SC(C)(C)[C@@H]2c1nnn[nH]1)c1ccccc1` [D-2-(ethoxycarbonylamino)-2-phenylacetyl]: 6.25 µg/mL (≈ 14 µM). On the same count and under the same terms, then `CC1(C)S[C@@H]2[C@H](NC(=O)[C@H](NC(=O)CNC(=O)NC(=N)NCc3ccc(Cl)cc3)c3ccccc3)C(=O)N2[C@H]1c1nn[nH]n1`, with 0.39 µg/mL (≈ 0.609 µM); and `CC1(C)S[C@@H]2[C@H](NC(=O)[C@H](NC(=O)C(=O)c3ccccc3)c3ccccc3)C(=O)N2[C@H]1c1nnn[nH]1` [D-2-(benzoylformamido)-2-phenylacetyl], with 25 µg/mL (≈ 49.5 µM).

For `CC1(C)S[C@@H]2[C@H](NC(=O)[C@H](NC(=O)CNC(=O)NC(=N)N)c3ccccc3)C(=O)N2[C@H]1c1nn[nH]n1`, the MIC is 3.12 µg/mL (≈ 6.05 µM). On the same count and under the same terms, then `CC1(C)S[C@@H]2[C@H](NC(=O)[C@H](NC(=O)COc3ccccc3)c3ccccc3)C(=O)N2[C@H]1c1nnn[nH]1` [D-2-(2-phenoxyacetamido)-2-phenylacetyl], with 0.004 µg/mL (≈ 0.00788 µM). Same read-out and setting: then `CC1(C)S[C@@H]2[C@H](NC(=O)[C@H](NS(=O)(=O)c3ccc4ccccc4c3)c3ccccc3)C(=O)N2[C@H]1c1nn[nH]n1`, with 0.2 µg/mL (≈ 0.355 µM); and `CC1(C)S[C@@H]2[C@H](NC(=O)CSCc3ccccc3)C(=O)N2[C@H]1c1nnn[nH]1` [2-(benzylthio)acetyl], with 0.2 µg/mL (≈ 0.494 µM); and `CC1(C)S[C@@H]2[C@H](NC(=O)[C@@H](N)c3ccc(O)cc3)C(=O)N2[C@H]1c1nnn[nH]1` [L-2-amino-2-(p-hydroxyphenyl)acetyl], with less than 0.1 µg/mL.
